Data on 29 compounds can be found in patent US11013726B2 (Arbutus Biopharma Corporation, priority 2016, dated 2021).

In one assay the test system is HBsAg. Description: HBsAg assay. It counts as cell-based, hepatitis B virus. As to conditions: Hepatitis B virus, HepG2.2.15, 144 h, read-out: sAg EC50, μM, HepG2.2.15 cells, day 6. The procedure: Inhibition of HBsAg was determined in HepG2.2.15 cells. Cells were maintained in culture medium containing 10% fetal calf serum, […], Glutamine, penicillin/streptomycin. Cells were seeded in 96-well collagen-coated plate at a density of 30,000 cells/well. Serially diluted compounds were added to cells next day at the final DMSO concentration of 0.5%. Cells were incubated with compounds for 2-3 days, after which medium was removed. Fresh medium containing compounds was added to cells for additional 3-4 days. At day 6 after exposure of compounds, supernatant was collected, the HBsAg immunoassay (microplate-based chemiluminescence immunoassay kits, CLIA, Autobio Diagnosics Co., Zhengzhou, China, Catalog # CL0310-2) was used to determine the level of HBsAg according to manufactory instruction. Dose-response curves were generated and the EC50 value (effective concentrations that achieved 50% inhibitory effect) were determined using XLfit software. In addition, cells were seeded at a density of 5,000 cells/well for determination of cell viability in the presence and absence of compounds by using CellTiter-Glo reagent (Promega). Tables 1-3 show EC50 values obtained by the HBsAg assay for selected compounds.
`COCCCOc1cc2c(cc1C)-c1cc(=O)c(C(=O)O)cn1[C@H](C(C)C)CO2` [Example 46, (R)-7-Isopropyl-3-(3-methoxypropoxy)-2-methyl-11-oxo-6,7-dihydro-11H-benzo[f]pyrido[1,2-d][1,4]oxazepine-10-carboxylic acid]: the EC50 amounted to 0.039 µM.
Turning to `C=C1COc2cc3c(cc2OC1)-c1cc(=O)c(C(=O)O)cn1C(C(C)(C)C)C3` (centres unmarked) [Example 98, 6-(Tert-butyl)-11-methylene-2-oxo-6,7,11,12-tetrahydro-2H,10H-[1,4]dioxepino[2,3-g]pyrido[2,1-a]isoquinoline-3-carboxylic acid], the 50% effective concentration (EC50) was determined as 0.1 µM.
Consider `CCOC(=O)c1cn2c(cc1=NO)-c1cc(Cl)c(OC)cc1OCC2C(C)C` (centres unmarked) [Example 150, Ethyl 2-chloro-11-(hydroxyimino)-7-isopropyl-3-methoxy-6,7-dihydro-11H-benzo[f]pyrido[1,2-d][1,4]oxazepine-10-carboxylate], for which the EC50 came to 24 µM.
As for `CCc1cc2c(cc1OCCCO)OC[C@@H](C(C)C)n1cc(C(=O)O)c(=O)cc1-2` [Example 56, (R)-2-Ethyl-3-(3-hydroxypropoxy)-7-isopropyl-11-oxo-6,7-dihydro-111H-benzo[f]pyrido[1,2-d][1,4]oxazepine-10-carboxylic acid], the half-maximal effective concentration (EC50) was 0.026 µM.
As for `CC(C)COc1cc2c(nc1Cl)-c1cc(=O)c(C(=O)O)cn1[C@H](C(C)C)CO2` [Example 79, (R)-2-Chloro-3-isobutoxy-7-isopropyl-11-oxo-6,7-dihydro-11H-dipyrido[1,2-d:2′,3′-f][1,4]oxazepine-10-carboxylic acid], the EC50 amounted to 0.79 µM.
For `CC(C)(C)C1Cc2cc3c(cc2-c2cc(=O)c(C(=O)O)cn21)OCC(O)CO3` (centres unmarked) [Example 103, 6-(Tert-butyl)-11-hydroxy-2-oxo-6,7,11,12-tetrahydro-2H,10H-[1,4]dioxepino[2,3-g]pyrido[2,1-a]isoquinoline-3-carboxylic acid], the EC50 was determined as 0.05 µM.
Regarding `CC(C)[C@@H]1COc2cc(OCCCCO)c(Cl)cc2-c2cc(=O)c(C(=O)O)cn21` [Example 39, (R)-2-Chloro-3-(4-hydroxybutoxy)-7-isopropyl-11-oxo-6,7-dihydro-11H-benzo[f]pyrido[1,2-d][1,4]oxazepine-10-carboxylic acid], the EC50 is 0.014 µM.
Regarding `COCCCN(C)c1cc2c(cc1Cl)-c1cc(=O)c(C(=O)O)cn1[C@H](C(C)C)CO2` [Example 63, (R)-2-Chloro-7-isopropyl-3-((3-methoxypropyl)(methyl)amino)-11-oxo-6,7-dihydro-11H-benzo[f]pyrido[1,2-d][1,4]oxazepine-10-carboxylic acid], the EC50 worked out at 0.03 µM.
On the same count and under the same terms, for `COCCCOc1cc2c(cc1Cl)-c1cc(=O)c(-c3ncccn3)cn1C(C(C)(C)C)C2` (centres unmarked) [Example 132, 6-Tert-butyl-10-chloro-9-(3-methoxypropoxy)-3-(pyrimidin-2-yl)-6H,7H-pyrido[2,1-a]isoquinolin-2-one] the value was 0.078 µM; for `COCCCOc1cc2c(nc1OC)-c1cc(=O)c(-c3nnco3)cn1[C@H](C(C)C)C2` [Example 110, (S)-6-Isopropyl-2-methoxy-3-(3-methoxypropoxy)-9-(1,3,4-oxadiazol-2-yl)-5,6-dihydro-10-pyrido[1,2-h][1,7]naphthyridin-10-one], 0.057 µM; for `COCCCOc1cc2c(cc1Cl)-c1cc(=O)ccn1[C@H](C(C)C)CO2` [Example 136, (R)-2-Chloro-7-isopropyl-3-(3-methoxypropoxy)-6,7-dihydro-11H-benzo[f]pyrido[1,2-d][1,4]oxazepin-11-one], 0.57 µM.
Consider `CC(C)[C@@H]1COc2cc(OCCCNC(=O)OC(C)(C)C)c(Cl)cc2-c2cc(=O)c(C(=O)O)cn21` [Example 42, (R)-3-(3-((tert-Butoxycarbonyl)amino)propoxy)-2-chloro-7-isopropyl-11-oxo-6,7-dihydro-11H-benzo[f]pyrido[1,2-d][1,4]oxazepine-10-carboxylic acid], for which the EC50 worked out at 0.042 µM.
On the same count and under the same terms, under `CCOP(=O)(O)c1cn2c(cc1=O)-c1cc(Cl)c(OCCCOC)cc1CC2C(C)(C)C` (centres unmarked) [Example 106, Ethyl hydrogen (6-(tert-butyl)-10-chloro-9-(3-methoxypropoxy)-2-oxo-6,7-dihydro-2H-pyrido[2,1-a]isoquinolin-3-yl)phosphonate] stands 7.2 µM.
Consider `COCCCOc1cc2c(cc1Cl)-c1cc(=O)c(-c3ncccc3C)cn1[C@H](C(C)C)CO2` [Example 137, (R)-2-Chloro-7-isopropyl-3-(3-methoxypropoxy)-10-(3-methylpyridin-2-yl)-6,7-dihydro-11H-benzo[f]pyrido[1,2-d][1,4]oxazepin-11-one], for which the EC50 turned out to be 10 µM.
Regarding `COCCCOc1cc2c(nc1OC)-c1c(F)c(=O)c(C(=O)O)cn1[C@H](C(C)C)C2` [Example 26, (S)-11-Fluoro-6-isopropyl-2-methoxy-3-(3-methoxypropoxy)-10-oxo-5,10-dihydro-6H-pyrido[1,2-h][1,7]naphthyridine-9-carboxylic acid], the concentration for a half-maximal effect (EC50) was 0.002 µM.
`COc1cc2c(cc1Cl)-c1cc(=O)c(C(=O)O)cn1C(C1CCC1)CO2` (centres unmarked) [Example 10, 2-Chloro-7-cyclobutyl-3-methoxy-11-oxo-6,7-dihydro-11H-benzo[f]pyrido[1,2-d][1,4]oxazepine-10-carboxylic acid]: the EC50 is 0.24 µM.
As to `COCCCOc1cc2c(nc1OC)-c1cc(=O)c(C(=O)O)cn1[C@H](C(C)C)CC2` [Example 168, (S)-7-Isopropyl-2-methoxy-3-(3-methoxypropoxy)-11-oxo-5,6,7,11-tetrahydrodipyrido[1,2-a:2′,3′-c]azepine-10-carboxylic acid], the EC50 amounted to 0.071 µM.
Take `COc1cc2c(cc1Cl)-c1cc(=O)c(C(=O)O)cn1C(CC(C)C)CO2` (centres unmarked) [Example 5, 2-Chloro-7-isobutyl-3-methoxy-11-oxo-6,7-dihydro-11H-benzo[f]pyrido[1,2-d][1,4]oxazepine-10-carboxylic acid]: the EC50 is 0.91 µM.
On to `Cc1cc2c(cc1OCCCO)OC[C@@H](C(C)C)n1cc(C(=O)O)c(=O)cc1-2` [Example 60, (R)-3-(3-Hydroxypropoxy)-7-isopropyl-2-methyl-11-oxo-6,7-dihydro-11H-benzo[f]pyrido[1,2-d][1,4]oxazepine-10-carboxylic acid], for which the concentration for a half-maximal effect (EC50) turned out to be 0.057 µM.
Same read-out and setting: for `COc1cc2c(cc1F)-c1cc(=O)c(C(=O)O)cn1C(C(C)C)CO2` (centres unmarked) [Example 15, 2-Fluoro-7-isopropyl-3-methoxy-11-oxo-6,7-dihydro-11H-benzo[f]pyrido[1,2-d][1,4]oxazepine-10-carboxylic acid] the value was 0.9 µM.
`COc1cc2c(cc1Cl)-c1cc(=O)c(C(=O)O)cn1[C@H](C(C)C)CO2` (single isomer, unassigned) [Example 3]: the EC50 amounted to 0.032 µM.
With `CCOC(=O)c1cn2c(cc1=O)-c1cc(Cl)c(O)cc1OCC2C(C)C` (centres unmarked) [Example 32, Ethyl 2-chloro-3-hydroxy-7-isopropyl-11-oxo-6,7-dihydro-11H-benzo[f]pyrido[1,2-d][1,4]oxazepine-10-carboxylate], the EC50 was determined as 22 µM.
Same read-out and setting: under `COCCCOc1cc2c(cc1Cl)-c1cc3noc(=O)c-3cn1C(C(C)(C)C)C2` (centres unmarked) [Example 146, 6-(Tert-butyl)-2-chloro-3-(3-methoxypropoxy)-5,6-dihydro-9H-isoxazolo[3′,4′:4,5]pyrido[2,1-a]isoquinolin-9-one] stands 0.031 µM; under `COCCCOc1cc2c(cc1Cl)-c1cc(=O)c(NC(=O)OC(C)(C)C)cn1[C@H](C(C)C)CO2` [Example 134, Tert-butyl (R)-(2-chloro-7-isopropyl-3-(3-methoxypropoxy)-11-oxo-6,7-dihydro-11H-benzo[f]pyrido[1,2-d][1,4]oxazepin-10-yl)carbamate], 45 µM.
`COCCCOc1cc2c(nc1OC)-c1cc(=O)c(-c3n[nH]c(=S)[nH]3)cn1[C@H](C(C)C)C2` [Example 109, (S)-6-Isopropyl-2-methoxy-3-(3-methoxypropoxy)-9-(5-thioxo-4,5-dihydro-1H-1,2,4-triazol-3-yl)-5,6-dihydro-10H-pyrido[1,2-h][1,7]naphthyridin-10-one]: the concentration giving a half-maximal response (EC50) amounted to 0.029 µM.
For the compound `COc1cc2c(cc1Cl)-c1cc(=O)c(C(=O)O)cn1CC(C(C)(C)C)O2` (centres unmarked) [Example 12, 6-(Tert-butyl)-2-chloro-3-methoxy-11-oxo-6,7-dihydro-11H-benzo[f]pyrido[1,2-d][1,4]oxazepine-10-carboxylic acid], the EC50 was 47 µM.
As to `COCCOc1cc2c(cc1Cl)-c1cc(=O)c(C(=O)O)cn1[C@H](C(C)C)CO2` (single isomer, unassigned) [Example 30], the concentration giving a half-maximal response (EC50) was determined as 0.053 µM.

Staying with this assay, now noted: read-out: sAg EC50; HepG2.2.15 cells, day 6.
As for `COCCCOc1cc2c(nc1OC)-c1cc(=O)c(C(=O)O)cn1C(C)(C(C)C)C2` (single isomer, unassigned) [Example 156, 6-Isopropyl-2-methoxy-3-(3-methoxypropoxy)-6-methyl-10-oxo-5,10-dihydro-6H-pyrido[1,2-h][1,7]naphthyridine-9-carboxylic acid], the EC50 turned out to be 0.001 µM.
Consider `COCCCOc1cc2c([nH]c1=O)-c1cc(=O)c(C(=O)O)cn1C(C(C)C)C2` (single isomer, unassigned) [Example 166, 6-Isopropyl-3-(3-methoxypropoxy)-2,10-dioxo-2,5,6,10-tetrahydro-1H-pyrido[1,2-h][1,7]naphthyridine-9-carboxylic acid], for which the EC50 was found to be 0.45 µM.

In general, EC50 refers to the concentration at which the effect is half-maximal.
